Measurements reported in ChEMBL document CHEMBL1201862, “PubChem BioAssay data set” (2004).
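Growth conditions: 96-well plates. Treatment: test compound, 48 hours, 5 concentrations. Analysis: linear interpolation between bracketing concentrations; unreached endpoints set to highest concentration. GI50: concentration for 50% inhibition of growth.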 Calls of active or inactive are those of the source. Cut-off read from the data, not from the text of the source: active = GI50 up to about 1.1 µM and inactive = higher.

What was measured:
Experiment in all cases: NCI-60 cell line screen, 48 h
786-0 = system: 786-0
A498 = system: A498
A549 = system: A549
ACHN = system: ACHN
BT-549 = system: BT-549
CAKI-1 = system: CAKI-1
CCRF-CEM = system: CCRF-CEM
COLO 205 = system: COLO 205
DU-145 = system: DU-145
EKVX = system: EKVX
HCT-116 = system: HCT-116
HCT-15 = system: HCT-15
HL-60 = system: HL-60
HOP-62 = system: HOP-62
HOP-92 = system: HOP-92
HT-29 = system: HT-29
Hs-578T = system: Hs-578T
IGROV-1 = system: IGROV-1
KM12 = system: KM12
LOX IMVI = system: LOX IMVI
M14 = system: M14
MCF7 = system: MCF7
MDA-MB-231 = system: MDA-MB-231
MDA-MB-435 = system: MDA-MB-435
MDA-N = system: MDA-N
MOLT-4 = system: MOLT-4
Malme-3M = system: Malme-3M
NCI-H226 = system: NCI-H226
NCI-H23 = system: NCI-H23
NCI-H460 = system: NCI-H460
NCI/ADR-RES = system: NCI/ADR-RES
OVCAR-3 = system: OVCAR-3
OVCAR-5 = system: OVCAR-5
OVCAR-8 = system: OVCAR-8
PC-3 = system: PC-3
RPMI-8226 = system: RPMI-8226
SF-268 = system: SF-268
SF-295 = system: SF-295
SF-539 = system: SF-539
SK-MEL-28 = system: SK-MEL-28
SK-MEL-5 = system: SK-MEL-5
SK-OV-3 = system: SK-OV-3
SN12C = system: SN12C
SNB-19 = system: SNB-19
SNB-75 = system: SNB-75
SR = system: SR
SW-620 = system: SW-620
T47D = system: T47D
TK-10 = system: TK-10
U-251 = system: U-251
UACC-257 = system: UACC-257
UO-31 = system: UO-31
HCC 2998 = system: HCC 2998
K562 = system: K562
NCI-H522 = system: NCI-H522
OVCAR-4 = system: OVCAR-4
RXF 393 = system: RXF 393
SK-MEL-2 = system: SK-MEL-2
UACC-62 = system: UACC-62

COc1cc(-c2c3c(cc4c2OCO4)[C@@H](Nc2ccc4c(c2)Cc2cc(N[C@@H]5c6cc7c(cc6C(c6cc(OC)c(O)c(OC)c6)[C@H]6C(=O)OC[C@H]56)OCO7)ccc2-4)[C@H]2COC(=O)[C@@H]2C3)cc(OC)c1O (stereo partly drawn)
GI50 (786-0): 18.5 µM (inactive) | GI50 (A498): 44.3 µM (inactive) | GI50 (A549): 47.2 µM (inactive) | GI50 (ACHN): 47.8 µM (inactive) | GI50 (BT-549): 35.1 µM (inactive) | GI50 (CAKI-1): 23.4 µM (inactive) | GI50 (CCRF-CEM): > 100 µM (inactive) | GI50 (COLO 205): 15.3 µM (inactive) | GI50 (DU-145): 26.3 µM (inactive) | GI50 (EKVX): 74.6 µM (inactive) | GI50 (HCT-116): 21.8 µM (inactive) | GI50 (HCT-15): 43.8 µM | GI50 (HL-60): > 100 µM (inactive) | GI50 (HOP-62): 18.5 µM (inactive) | GI50 (HOP-92): 10.2 µM (inactive) | GI50 (HT-29): 20 µM (inactive) | GI50 (Hs-578T): > 100 µM (inactive) | GI50 (IGROV-1): 1.56 µM (inactive) | GI50 (KM12): 26.5 µM (inactive) | GI50 (LOX IMVI): 51.3 µM (inactive) | GI50 (M14): 21.9 µM (inactive) | GI50 (MCF7): 27.9 µM (inactive) | GI50 (MDA-MB-231): 21 µM (inactive) | GI50 (MDA-MB-435): 13.7 µM (inactive) | GI50 (MDA-N): 13.3 µM (inactive) | GI50 (MOLT-4): > 100 µM (inactive) | GI50 (Malme-3M): 14.8 µM (inactive) | GI50 (NCI-H226): 43.5 µM (inactive) | GI50 (NCI-H23): 76.4 µM (inactive) | GI50 (NCI-H460): 17.3 µM (inactive) | GI50 (NCI/ADR-RES): 15.2 µM (inactive) | GI50 (OVCAR-3): 55.5 µM (inactive) | GI50 (OVCAR-5): 27.8 µM (inactive) | GI50 (OVCAR-8): 40.6 µM (inactive) | GI50 (PC-3): 10.9 µM (inactive) | GI50 (RPMI-8226): > 100 µM (inactive) | GI50 (SF-268): 51.2 µM (inactive) | GI50 (SF-295): 20.3 µM (inactive) | GI50 (SF-539): 0.977 µM (active) | GI50 (SK-MEL-28): 15.5 µM (inactive) | GI50 (SK-MEL-5): 18.5 µM (inactive) | GI50 (SK-OV-3): 14.8 µM (inactive) | GI50 (SN12C): > 100 µM (inactive) | GI50 (SNB-19): 36 µM (inactive) | GI50 (SNB-75): > 100 µM (inactive) | GI50 (SR): 11.6 µM (inactive) | GI50 (SW-620): 49.8 µM (inactive) | GI50 (T47D): 98.2 µM (inactive) | GI50 (TK-10): 31 µM (inactive) | GI50 (U-251): 26.7 µM (inactive) | GI50 (UACC-257): 48.8 µM (inactive) | GI50 (UO-31): 21.9 µM (inactive)

Cc1nn(C(=O)c2ccccc2O)c2c1C(c1ccccc1)SC(=N)N2 (stereo not drawn)
GI50 (786-0): 1.57 µM (inactive) | GI50 (A549): 0.6 µM (active) | GI50 (ACHN): 0.419 µM (active) | GI50 (BT-549): > 10 µM (inactive) | GI50 (CAKI-1): 0.547 µM (active) | GI50 (CCRF-CEM): 2.36 µM (inactive) | GI50 (COLO 205): 3.87 µM (inactive) | GI50 (DU-145): 0.627 µM (active) | GI50 (EKVX): > 10 µM (inactive) | GI50 (HCC 2998): 7.69 µM (inactive) | GI50 (HCT-116): 0.906 µM (active) | GI50 (HCT-15): 3.86 µM | GI50 (HL-60): 1.61 µM (inactive) | GI50 (HOP-62): 2.64 µM (inactive) | GI50 (HT-29): 5.38 µM (inactive) | GI50 (Hs-578T): 0.7 µM (active) | GI50 (IGROV-1): 0.481 µM (active) | GI50 (K562): 0.413 µM (active) | GI50 (KM12): 3.53 µM (inactive) | GI50 (LOX IMVI): 3.1 µM (inactive) | GI50 (M14): 1.69 µM (inactive) | GI50 (MCF7): 2.81 µM (inactive) | GI50 (MDA-MB-231): 0.811 µM (active) | GI50 (MDA-MB-435): 0.416 µM (active) | GI50 (MDA-N): 1.2 µM (inactive) | GI50 (MOLT-4): 2.75 µM (inactive) | GI50 (Malme-3M): 0.479 µM (active) | GI50 (NCI-H226): 1.16 µM (inactive) | GI50 (NCI-H23): 0.836 µM (active) | GI50 (NCI-H460): 3.64 µM (inactive) | GI50 (NCI-H522): 3.19 µM (inactive) | GI50 (NCI/ADR-RES): 1.56 µM (inactive) | GI50 (OVCAR-3): 1.79 µM (inactive) | GI50 (OVCAR-4): 1.49 µM (inactive) | GI50 (OVCAR-5): 6.08 µM (inactive) | GI50 (OVCAR-8): 0.867 µM (active) | GI50 (PC-3): 4.57 µM (inactive) | GI50 (RPMI-8226): 2.97 µM (inactive) | GI50 (RXF 393): > 10 µM (inactive) | GI50 (SF-268): 3.27 µM (inactive) | GI50 (SF-295): 3.74 µM (inactive) | GI50 (SF-539): 0.214 µM (active) | GI50 (SK-MEL-28): > 10 µM (inactive) | GI50 (SK-MEL-2): 3.58 µM (inactive) | GI50 (SK-MEL-5): 3.19 µM (inactive) | GI50 (SK-OV-3): 5.6 µM (inactive) | GI50 (SN12C): 2.25 µM (inactive) | GI50 (SNB-19): 6.38 µM (inactive) | GI50 (SNB-75): 0.311 µM (active) | GI50 (SR): 2.42 µM (inactive) | GI50 (SW-620): 3.58 µM (inactive) | GI50 (T47D): 5.43 µM (inactive) | GI50 (TK-10): 0.897 µM (active) | GI50 (U-251): 2.11 µM (inactive) | GI50 (UACC-257): 2.01 µM (inactive) | GI50 (UACC-62): 0.44 µM (active)
